# Laboratory results from ChEMBL document CHEMBL1201861, “Genomics of Drug Sensitity in Cancer screening data, Wellcome Trust Sanger Institute”.
# How the values were obtained:
# Assay type in all cases: functional, cell-based
# COR-L279 = assay: SANGER: Inhibition of human COR-L279 cell growth in a cell viability assay.
# DMS-153 = assay: cells; settings: Homo sapiens
# Description: SANGER: Inhibition of human DMS-153 cell growth in a cell viability assay.
# IM-9 = assay: SANGER: Inhibition of human IM-9 cell growth in a cell viability assay.
# IMR-5 = assay: cells; settings: Homo sapiens;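 note: growth inhibition of human IMR-5 cells, read out with a cell viability assay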
# Description: SANGER: Inhibition of human IMR-5 cell growth in a cell viability assay.
# IST-SL2 = assay: cells; settings: Homo sapiens;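 note: growth inhibition of human IST-SL2 cells, read out by a cell viability assay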
# Description: SANGER: Inhibition of human IST-SL2 cell growth in a cell viability assay.
# K052 = assay: cells; settings: Homo sapiens;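 note: Read-out from a cell viability assay, IC50 reflecting suppression of K052 cell growth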
# Description: SANGER: Inhibition of human K052 cell growth in a cell viability assay.
# LOUCY = assay: cells; settings: Homo sapiens;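 note: growth inhibition of human LOUCY cells, read out with a cell viability assay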
# Description: SANGER: Inhibition of human LOUCY cell growth in a cell viability assay.
# NALM-6 = assay: cells; settings: Homo sapiens;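 note: growth inhibition of NALM-6 cells, read out with a cell viability assay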
# Description: SANGER: Inhibition of human NALM-6 cell growth in a cell viability assay.
# NB1 = assay: cells; settings: Homo sapiens;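 note: reduction of NB1 cell proliferation, read out with a viability assay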
# Description: SANGER: Inhibition of human NB1 cell growth in a cell viability assay.
# NCI-H1436 = assay: cells; settings: Homo sapiens;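 note: growth suppression of human NCI-H1436 cells, determined with a cell viability readout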
# Description: SANGER: Inhibition of human NCI-H1436 cell growth in a cell viability assay.
# NCI-H2081 = assay: cells; settings: Homo sapiens;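 note: growth inhibition of human NCI-H2081 cells, read out with a cell viability assay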
# Description: SANGER: Inhibition of human NCI-H2081 cell growth in a cell viability assay.
# NCI-H748 = assay: cells; settings: Homo sapiens;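 note: growth inhibition of NCI-H748 cells, measured by a cell viability assay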
# Description: SANGER: Inhibition of human NCI-H748 cell growth in a cell viability assay.
# SIMA = assay: cells; settings: Homo sapiens;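 note: growth inhibition of SIMA cells, measured with a cell viability readout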
# Description: SANGER: Inhibition of human SIMA cell growth in a cell viability assay.
# ST486 = assay: SANGER: Inhibition of human ST486 cell growth in a cell viability assay.
# BOKU = assay: cells; settings: Homo sapiens;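 note: growth inhibition of the human BOKU cell line, read out by a cell viability assay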
# Description: SANGER: Inhibition of human BOKU cell growth in a cell viability assay.
# TGW = assay: cells; settings: Homo sapiens;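 note: growth inhibition of human TGW cells, read out with a cell viability assay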
# Description: SANGER: Inhibition of human TGW cell growth in a cell viability assay.
# WSU-NHL = assay: cells; settings: Homo sapiens;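 note: growth inhibition of human WSU-NHL cells, read out with a cell viability assay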
# Description: SANGER: Inhibition of human WSU-NHL cell growth in a cell viability assay.
# CMK = assay: cells; settings: Homo sapiens;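 note: growth inhibition of CMK cells, read out as cell viability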
# Description: SANGER: Inhibition of human CMK cell growth in a cell viability assay.
# CP50-MEL-B = assay: cells; settings: Homo sapiens;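 note: growth inhibition of the human cell line, measured with a cell viability read-out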
# Description: SANGER: Inhibition of human CP50-MEL-B cell growth in a cell viability assay.
# Calu-3 = assay: cells; settings: Homo sapiens;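 note: growth inhibition of human Calu-3 cells, determined with a cell viability assay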
# Description: SANGER: Inhibition of human Calu-3 cell growth in a cell viability assay.
# Daoy = assay: cells; settings: Homo sapiens;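 note: daoy cell growth inhibition, read out as cell viability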
# Description: SANGER: Inhibition of human Daoy cell growth in a cell viability assay.
# FaDu = assay: cells; settings: Homo sapiens;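 note: cell viability readout of growth inhibition in FaDu cells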
# Description: SANGER: Inhibition of human FADU cell growth in a cell viability assay.
# HCC1419 = assay: cells; settings: Homo sapiens;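 note: growth inhibition of human HCC1419 cells, read out as cell viability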
# Description: SANGER: Inhibition of human HCC1419 cell growth in a cell viability assay.
# HCC1569 = assay: cells; settings: Homo sapiens;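 note: growth inhibition of human HCC1569 cells, read out with a cell viability assay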
# Description: SANGER: Inhibition of human HCC1569 cell growth in a cell viability assay.
# HO-1-N-1 = assay: cells; settings: Homo sapiens;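 note: growth inhibition of human HO-1-N-1 cells, read out with a cell viability assay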
# Description: SANGER: Inhibition of human HO-1-N-1 cell growth in a cell viability assay.
# HPAF-II = assay: cells; settings: Homo sapiens;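 note: growth inhibition of HPAF-II cells, read out with a cell viability assay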
# Description: SANGER: Inhibition of human HPAF-II cell growth in a cell viability assay.
# HTC-C3 = assay: cells; settings: Homo sapiens;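 note: inhibition of cell growth, read out with a cell viability assay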
# Description: SANGER: Inhibition of human HTC-C3 cell growth in a cell viability assay.
# KU-19-19 = assay: cells; settings: Homo sapiens
# Description: SANGER: Inhibition of human KU-19-19 cell growth in a cell viability assay.
# KYSE-410 = assay: cells; settings: Homo sapiens;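 note: growth inhibition of KYSE-410 cells, measured through a cell viability readout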
# Description: SANGER: Inhibition of human KYSE-410 cell growth in a cell viability assay.
# KYSE-450 = assay: cells; settings: Homo sapiens;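 note: cell growth inhibition measured by a viability assay in human KYSE-450 cells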
# Description: SANGER: Inhibition of human KYSE-450 cell growth in a cell viability assay.
# KYSE-70 cell line = assay: cells; settings: Homo sapiens;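 note: cell viability assay read-out, with IC50 expressing suppression of KYSE-70 cell growth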
# Description: SANGER: Inhibition of human KYSE-70 cell growth in a cell viability assay.
# MCF7 = assay: cells; settings: Homo sapiens;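 note: growth inhibition of human MCF7 cells, read out with a cell viability assay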
# Description: SANGER: Inhibition of human MCF7 cell growth in a cell viability assay.
# MDA-MB-231 = assay: cells; settings: Homo sapiens
# Description: SANGER: Inhibition of human MDA-MB-231 cell growth in a cell viability assay.
# NCI-H1573 = assay: cells; settings: Homo sapiens;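 note: growth inhibition of NCI-H1573 cells, read out with a cell viability assay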
# Description: SANGER: Inhibition of human NCI-H1573 cell growth in a cell viability assay.
# NCI-H1693 = assay: cells; settings: Homo sapiens;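 note: growth inhibition of the human cell line, read out with a cell viability assay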
# Description: SANGER: Inhibition of human NCI-H1693 cell growth in a cell viability assay.
# NCI-H1993 = assay: cells; settings: Homo sapiens;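 note: growth inhibition of the cancer cell line, assessed with a cell viability assay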
# Description: SANGER: Inhibition of human NCI-H1993 cell growth in a cell viability assay.
# NCI-H2228 = assay: cells; settings: Homo sapiens;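 note: growth inhibition of human NCI-H2228 cells, read out by a cell viability assay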
# Description: SANGER: Inhibition of human NCI-H2228 cell growth in a cell viability assay.
# NCI-H2452 = assay: cells; settings: Homo sapiens;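 note: growth inhibition of NCI-H2452 cells, read out with a cell viability assay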
# Description: SANGER: Inhibition of human NCI-H2452 cell growth in a cell viability assay.
# OE19 = assay: cells; settings: Homo sapiens;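 note: growth inhibition of OE19 cells, measured through a cell viability read-out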
# Description: SANGER: Inhibition of human OE19 cell growth in a cell viability assay.
# Panc1005 = assay: cells; settings: Homo sapiens;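 note: growth inhibition of human PANC-10-05 cells, measured by a cell viability assay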
# Description: SANGER: Inhibition of human PANC-10-05 cell growth in a cell viability assay.
# PFSK-1 = assay: cells; settings: Homo sapiens;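 note: cell viability assay measuring how strongly compounds suppress growth of human PFSK-1 cells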
# Description: SANGER: Inhibition of human PFSK-1 cell growth in a cell viability assay.
# SAS = assay: cells; settings: Homo sapiens;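 note: growth inhibition of SAS cells, read out with a cell viability assay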
# Description: SANGER: Inhibition of human SAS cell growth in a cell viability assay.
# SCC-9 = assay: cells; settings: Homo sapiens;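 note: Read-out is a cell viability assay, with values giving inhibition of cell growth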
# Description: SANGER: Inhibition of human SCC-9 cell growth in a cell viability assay.
# SJRH30 = assay: cells; settings: Homo sapiens;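 note: growth inhibition of human SJRH30 cells, read out with a cell viability assay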
# Description: SANGER: Inhibition of human SJRH30 cell growth in a cell viability assay.
# SNU-449 = assay: cells; settings: Homo sapiens
# Description: SANGER: Inhibition of human SNU-449 cell growth in a cell viability assay.
# SW13 = assay: cells; settings: Homo sapiens;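 note: IC50 is inhibition of SW13 cell growth, read out with a cell viability assay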
# Description: SANGER: Inhibition of human SW13 cell growth in a cell viability assay.
# SW1417 = assay: cells; settings: Homo sapiens;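 note: growth inhibition of human SW1417 cells, read out with a cell viability assay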
# Description: SANGER: Inhibition of human SW1417 cell growth in a cell viability assay.
# SW1710 = assay: cells; settings: Homo sapiens;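 note: growth inhibition of SW1710 cells, determined with a cell viability assay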
# Description: SANGER: Inhibition of human SW1710 cell growth in a cell viability assay.
# SW1990 = assay: cells; settings: Homo sapiens
# Description: SANGER: Inhibition of human SW1990 cell growth in a cell viability assay.
# SW756 = assay: cells; settings: Homo sapiens;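 note: growth inhibition of human SW756 cells, read out with a cell viability assay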
# Description: SANGER: Inhibition of human SW756 cell growth in a cell viability assay.
# SW780 = assay: cells; settings: Homo sapiens;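 note: growth inhibition of the cells, read out with a cell viability assay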
# Description: SANGER: Inhibition of human SW780 cell growth in a cell viability assay.
# CWR22R = assay: cells; settings: Homo sapiens, 22Rv1;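 note: growth inhibition of 22Rv1 cells, read out with a cell viability assay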
# Description: SANGER: Inhibition of human 22RV1 cell growth in a cell viability assay.
# 639-V = assay: cells; settings: Homo sapiens;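 note: growth inhibition of 639-V cells, read out with a cell viability assay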
# Description: SANGER: Inhibition of human 639-V cell growth in a cell viability assay.
# 769-P = assay: cells; settings: Homo sapiens
# Description: SANGER: Inhibition of human 769-P cell growth in a cell viability assay.
# 8505C = assay: cells; settings: Homo sapiens
# Description: SANGER: Inhibition of human 8505C cell growth in a cell viability assay.
# ASPC1 = assay: cells; settings: Homo sapiens;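 note: growth inhibition of AsPC-1 cells, read out with a cell viability assay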
# Description: SANGER: Inhibition of human AsPC-1 cell growth in a cell viability assay.
# BEN = assay: cells; settings: Homo sapiens;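 note: growth inhibition of the BEN cell line, read out with a cell viability assay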
# Description: SANGER: Inhibition of human BEN cell growth in a cell viability assay.
# BT-20 = assay: cells; settings: Homo sapiens;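 note: cell viability assay measuring suppression of growth in human BT-20 cells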
# Description: SANGER: Inhibition of human BT-20 cell growth in a cell viability assay.
# UACC-893 = assay: cells; settings: Homo sapiens
# Description: SANGER: Inhibition of human UACC-893 cell growth in a cell viability assay.
# VM-CUB-1 = assay: cells; settings: Homo sapiens;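 note: cell viability assay measuring growth inhibition of the human VM-CUB-1 cell line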
# Description: SANGER: Inhibition of human VM-CUB-1 cell growth in a cell viability assay.
# VMRC-RCZ = assay: cells; settings: Homo sapiens
# Description: SANGER: Inhibition of human VMRC-RCZ cell growth in a cell viability assay.
# CHP-212 = assay: cells; settings: Homo sapiens
# Description: SANGER: Inhibition of human CHP-212 cell growth in a cell viability assay.
# COLO-678 = assay: cells; settings: Homo sapiens
# Description: SANGER: Inhibition of human COLO-678 cell growth in a cell viability assay.
smiles,measurement,setting,value
CCNc1cc(N[C@H]2CC[C@@H](O)CC2)nc(Nc2ccc3c(ccn3Cc3ccccc3)c2)n1,IC50,COR-L279,> 5.12 µM
same,IC50,DMS-153,> 5.12 µM
same,IC50,IM-9,> 5.12 µM
same,IC50,IMR-5,> 5.12 µM
same,IC50,IST-SL2,4.56 µM
same,IC50,K052,> 5.12 µM
same,IC50,LOUCY,> 5.12 µM
same,IC50,NALM-6,4.98 µM
same,IC50,NB1,> 5.12 µM
same,IC50,NCI-H1436,> 5.12 µM
same,IC50,NCI-H2081,> 5.12 µM
same,IC50,NCI-H748,> 5.12 µM
same,IC50,SIMA,> 5.12 µM
same,IC50,ST486,> 5.12 µM
same,IC50,BOKU,> 5.12 µM
same,IC50,TGW,> 5.12 µM
same,IC50,WSU-NHL,> 5.12 µM
same,IC50,CMK,> 5.12 µM
C/C(O)=C(\C#N)C(=O)Nc1cc(Br)ccc1Br,IC50,COR-L279,> 16 µM
same,IC50,CP50-MEL-B,> 16 µM
same,IC50,Calu-3,> 16 µM
same,IC50,DMS-153,> 16 µM
same,IC50,Daoy,> 16 µM
same,IC50,FaDu,> 16 µM
same,IC50,HCC1419,> 16 µM
same,IC50,HCC1569,> 16 µM
same,IC50,HO-1-N-1,> 16 µM
same,IC50,HPAF-II,> 16 µM
same,IC50,HTC-C3,> 16 µM
same,IC50,IM-9,> 16 µM
same,IC50,IMR-5,> 16 µM
same,IC50,IST-SL2,> 16 µM
same,IC50,K052,> 16 µM
same,IC50,KU-19-19,> 16 µM
same,IC50,KYSE-410,> 16 µM
same,IC50,KYSE-450,> 16 µM
same,IC50,KYSE-70 cell line,> 16 µM
same,IC50,MCF7,> 16 µM
same,IC50,MDA-MB-231,> 16 µM
same,IC50,NALM-6,> 16 µM
same,IC50,NB1,> 16 µM
same,IC50,NCI-H1436,> 16 µM
same,IC50,NCI-H1573,> 16 µM
same,IC50,NCI-H1693,> 16 µM
same,IC50,NCI-H1993,> 16 µM
same,IC50,NCI-H2081,> 16 µM
same,IC50,NCI-H2228,> 16 µM
same,IC50,NCI-H2452,> 16 µM
same,IC50,NCI-H748,> 16 µM
same,IC50,OE19,> 16 µM
same,IC50,Panc1005,> 16 µM
same,IC50,PFSK-1,> 16 µM
same,IC50,SAS,> 16 µM
same,IC50,SCC-9,> 16 µM
same,IC50,SIMA,> 16 µM
same,IC50,SJRH30,> 16 µM
same,IC50,SNU-449,> 16 µM
same,IC50,ST486,> 16 µM
same,IC50,SW13,> 16 µM
same,IC50,SW1417,> 16 µM
same,IC50,SW1710,> 16 µM
same,IC50,SW1990,> 16 µM
same,IC50,SW756,> 16 µM
same,IC50,SW780,> 16 µM
same,IC50,CWR22R,> 16 µM
same,IC50,639-V,> 16 µM
same,IC50,769-P,> 16 µM
same,IC50,8505C,> 16 µM
same,IC50,ASPC1,> 16 µM
same,IC50,BEN,> 16 µM
same,IC50,BOKU,> 16 µM
same,IC50,BT-20,> 16 µM
same,IC50,TGW,> 16 µM
same,IC50,UACC-893,> 16 µM
same,IC50,VM-CUB-1,> 16 µM
same,IC50,VMRC-RCZ,> 16 µM
same,IC50,WSU-NHL,> 16 µM
same,IC50,CHP-212,> 16 µM
same,IC50,CMK,> 16 µM
same,IC50,COLO-678,> 16 µM
